Data from patent US10377717B2, “Farnesoid X receptor agonists and uses thereof” (Metacrine, Inc., priority 2015, dated 2019).

What was measured:
hFXR [1] = target: T1, hFXR (Homo sapiens (Human), UniProt Q96RI1); test: In Vitro FXR Assay (PGL3), luciferase reporter in transfected CV-1 cells; type: cell-based; conditions: PGL3-ECRE*6-luc reporter, hFXR/hRXR, 18 hrs incubation
Method: CV-1 cells were seeded at a density of 2,000,000 cells in a T175 flask with DMEM+10% charcoal double-stripped FBS and incubated at 37° C. in a 5% CO2 for 18 h (O/N).
After 18 h of incubation, the medium in the T175 flask was changed with fresh DMEM+10% charcoal super-stripped serum.
To prepare the transfection reaction mixture, the transfection reagent (X-tremeGENE HP from Roche, Cat #06 366 236 001) was added in to a 1.5 mL microcentrifuge tube labelled “A” at a ratio of 1:3 (DNA in μg: transfection reagent in μL). OptiMEM medium (Life Technologies, Cat #31985-062) was added accordingly to provide a total volume of 1 mL. The transfection reaction mixture was then briefly vortexed and incubated at room temperature for 5 minutes.
In a separate 1.5 mL microcentrifuge tube labelled “B”, 100 μL OptiMEM and plasmids XPD90Gal pCMXhFXRfl, pCMXhRXRfl+PGL3-ECRE*6-luc+CMX-YFP in the ratio 2 μg: 2 μg:18 μg:3 μg were added. This microcentrifuge tube “B” was then briefly vortexed and incubated at room temperature for 5 minutes.
The total volume in tube labelled “A” was then transferred in to tube labelled “B.” The mixture was then briefly vortexed and the transfection:DNA complex was then incubated for about 15-20 minutes at room temperature.
Following incubation, the transfection reagent/DNA mixture complex was then added to cells in the T175 flask and the cells were incubated at […] (O/N) at 37° C. in 5% CO2.
In a 96 well plate, a half logarithmic serial dilution was prepared. OptiMEM was used as the diluent. Using any of one of the compounds described herein, a compound stock solution of 10 mM was prepared. An initial 1:100 dilution was made into the first well for a final concentration of 100 μM. The final concentrations in the 96-well plate was prepared by using a multichannel pipette to transfer 5 μL of the diluted compound to 384-well plate in quadruplicate.
Cells in T175 flask were trypsinized and cells were resuspending in 40 mL phenol red free DMEM+10% charcoal super-stripped FBS. Typically, one T175 flask was sufficient to seed two 384 well plates. CV-1 cells were seeded at 45 μL cell suspension/well using a multichannel pipet or a 384 multidrop dispenser. The cells were then incubated for 18 hrs, overnight.
After removing the plates from the incubator, the medium was flicked out of plate and 384 well plate was turned upside down onto paper towel. The remaining medium was gently tapped out. 15 μL lysis buffer was then added to each well using a multichannel pipet or a 384 well multi-drop dispenser. After incubation for 10 minutes at room temperature on shaker, 30 μL Luciferase buffer was added to each well. Luminescence counts were taken immediately using the Perkin Elmer Envision.
The ability of the compounds disclosed herein to […] FXR activity was quantified and the respective EC50 value was determined. Fex=fexaramine.

hFXR [2] = target: T1, hFXR; test: In Vitro FXR Assay (TK), luciferase reporter in transfected CV-1 cells; type: cell-based; conditions: TK-ECRE-luc reporter, hFXR/hRXR, 18 hrs, maximum efficacy <25% of Fexaramine control classified as '+'
Summary of the method: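 Luciferase luminescence read-out from lysed CV-1 cells transiently co-expressing hFXR and hRXR with a TK-ECRE-luc reporter (pCMX-YFP co-transfected). Compound exposure lasted 18 h at 37 °C, 5% CO2, in medium containing charcoal super-stripped serum.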

T1 sequence (Q96RI1 whole entry): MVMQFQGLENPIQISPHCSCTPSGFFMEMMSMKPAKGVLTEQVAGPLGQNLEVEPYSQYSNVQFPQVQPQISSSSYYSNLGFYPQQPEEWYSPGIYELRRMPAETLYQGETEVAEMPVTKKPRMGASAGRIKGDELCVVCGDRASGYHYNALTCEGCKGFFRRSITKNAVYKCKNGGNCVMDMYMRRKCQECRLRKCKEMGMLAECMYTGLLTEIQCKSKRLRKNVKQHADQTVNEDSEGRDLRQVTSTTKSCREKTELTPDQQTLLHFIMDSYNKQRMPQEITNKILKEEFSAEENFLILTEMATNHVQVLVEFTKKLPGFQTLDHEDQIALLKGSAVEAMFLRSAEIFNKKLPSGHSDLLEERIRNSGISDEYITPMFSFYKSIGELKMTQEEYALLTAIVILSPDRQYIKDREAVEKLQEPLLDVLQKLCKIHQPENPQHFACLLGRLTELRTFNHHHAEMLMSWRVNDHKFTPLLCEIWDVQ
T1 sequence (P19793 whole entry partner): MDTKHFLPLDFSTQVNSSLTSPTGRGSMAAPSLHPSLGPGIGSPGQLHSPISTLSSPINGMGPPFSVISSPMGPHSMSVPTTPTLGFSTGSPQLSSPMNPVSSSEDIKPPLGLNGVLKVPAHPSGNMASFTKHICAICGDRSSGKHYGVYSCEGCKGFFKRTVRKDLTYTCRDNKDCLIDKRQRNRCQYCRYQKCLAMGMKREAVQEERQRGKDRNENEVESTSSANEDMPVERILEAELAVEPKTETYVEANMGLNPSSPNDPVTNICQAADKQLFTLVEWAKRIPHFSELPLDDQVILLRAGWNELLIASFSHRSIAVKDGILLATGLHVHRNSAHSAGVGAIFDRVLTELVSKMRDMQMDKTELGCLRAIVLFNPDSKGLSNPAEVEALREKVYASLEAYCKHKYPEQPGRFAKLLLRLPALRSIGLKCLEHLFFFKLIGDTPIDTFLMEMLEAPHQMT

SMILES | Cmpd/Fex (ratio of the EC50 for the test compound relative to the EC50 of the Fexaramine control) (hFXR [1]) | EC50 (hFXR [2])
COC(=O)/C=C/c1ccnc(N(Cc2ccc(-c3ccc(N(C)C)cc3)cc2)C(=O)C2CCOCC2)c1 [Compound 4, (E)-Methyl 3-(2-(N-((4′-(dimethylamino)-[1,1′-biphenyl]-4-yl)methyl)tetrahydro-2H-pyran-4-carboxamido)pyridin-4-yl)acrylate] | +++ (‘+++’ means Cmpd/Fex < 10) | 1 to 10 µM
COC(=O)/C=C/c1cc(N(Cc2ccc(-c3ccc(N(C)C)cc3)cc2)C(=O)C2CCCCC2)ccn1 [Compound 3, (E)-Methyl 3-(4-(N-((4′-(dimethylamino)-[1,1′-biphenyl]-4-yl)methyl)cyclohexanecarboxamido)pyridin-2-yl)acrylate] | +++ (‘+++’ means Cmpd/Fex < 10) | 1 to 10 µM
CN(C)c1ccc(-c2ccc(CN(C(=O)C3CCCCC3)c3cccc4ccccc34)cc2)cc1 [Compound 9, N′-((4′-(Dimethylamino)-[1,1′-biphenyl]-4-yl)methyl)-N-(naphthalen-1-yl)cyclohexanecarboxamide] | ++ (‘++’ means Cmpd/Fex > 10 & < 100) | ≥ 10 µM
COC(=O)/C=C/c1ccnc(N(Cc2ccc(-c3ccc(N(C)C)nc3)cc2)C(=O)C2CCOCC2)c1 [Compound 6, (E)-Methyl 3-(2-(N-(4-(6-(dimethylamino)pyridin-3-yl)benzyl)tetrahydro-2H-pyran-4-carboxamido)pyridin-4-yl)acrylate] | + (‘+’ means Cmpd/Fex > 100) | 1 to 10 µM
COC(=O)/C=C/c1ccnc(N(Cc2ccc(-c3ccc(N(C)C)cc3)cc2)C(=O)C2CCCCC2)c1 [Compound 1, (E)-Methyl 3-(2-(N-((4′-(dimethylamino)-[1,1′-biphenyl]-4-yl)methyl)cyclohexanecarboxamido)pyridin-4-yl)acrylate] | +++ (‘+++’ means Cmpd/Fex < 10) | ≤ 1 µM
COC(=O)/C=C/c1ccnc(N(Cc2ccc(-c3ccc(N(C)C)nc3)cc2)C(=O)[C@H]2CC[C@H](O)CC2)c1 [Compound 7, (E)-Methyl 3-(2-(trans-N-(4-(6-(dimethylamino)pyridin-3-yl)benzyl)-4-hydroxycyclohexanecarboxamido)pyridin-4-yl)acrylate] | + (‘+’ means Cmpd/Fex > 100) | 1 to 10 µM
COC(=O)c1ccc2c(N(Cc3ccc(-c4ccc(OC)c(C)c4)cc3)C(=O)C3CCCCCC3)nccc2c1 [Compound 25, Methyl 1-(N-((4′-methoxy-3′-methyl-[1,1′-biphenyl]-4-yl)methyl)cycloheptanecarboxamido) isoquinoline-6-carboxylate] | – | ≤ 1 µM
COC(=O)c1ccc2c(N(Cc3ccc(-c4ccc(OC)c(C)c4)cc3)C(C)=O)nccc2c1 [Compound 27, Methyl 1-(N-((4′-methoxy-3′-methyl-[1,1′-biphenyl]-4-yl)methyl)acetamido)isoquinoline-6-carboxylate] | – | ≥ 10 µM
COC(=O)c1ccc2c(N(Cc3ccc(-c4ccc(OC)c(C#N)c4)cc3)C(=O)[C@H]3CC[C@H](O)CC3)nccc2c1 [Compound 67, Methyl 1-(trans-N-((3′-cyano-4′-methoxy-[1,1′-biphenyl]-4-yl)methyl)-4-hydroxycyclohexanecarboxamido) isoquinoline-6-carboxylate] | – | 1 to 10 µM
COC(=O)c1ccc2c(N(Cc3ccc(-c4ccc5c(c4)CCN5)cc3)C(=O)CC(C)(C)C)nccc2c1 [Compound 63, Methyl 1-(N-(4-(indolin-5-yl)benzyl)-3,3-dimethylbutanamido)isoquinoline-6-carboxylate] | – | ≤ 1 µM
COC(=O)c1ccc2c(N(Cc3ccc(-c4ccc5c(c4)CCN5C(=O)OC(C)(C)C)cc3)C(=O)CC(C)(C)C)nccc2c1 [Compound 51, Methyl 1-(N-(4-(1-(tert-butoxycarbonyl)indolin-5-yl)benzyl)-3,3-dimethylbutanamido)isoquinoline-6-carboxylate] | – | ≥ 10 µM
COC(=O)c1ccc2c(N(Cc3ccc(-c4ccc(OC)c(C)c4)cc3)C(=O)C3CCCCC3)nccc2c1 [Compound 20, Methyl 1-(N-((4′-methoxy-3′-methyl-[1,1′-biphenyl]-4-yl)methyl)cyclohexanecarboxamido) isoquinoline-6-carboxylate] | – | ≤ 1 µM
COC(=O)c1ccc2c(N(Cc3ccc(-c4ccc(N(C)C)cc4)cc3)C(=O)C3CCCCC3)cccc2c1 [Compound 8, Methyl 5-(N-((4′-(dimethylamino)-[1,1′-biphenyl]-4-yl)methyl)cyclohexanecarboxamido)-2-naphthoate] | ++ (‘++’ means Cmpd/Fex > 10 & < 100) | 1 to 10 µM
COC(=O)c1ccc2c(N(Cc3ccc(-c4ccc(OC)c(F)c4F)cc3)C(=O)CC(C)(C)C)nccc2c1 [Compound 29, Methyl 1-(N-((2′,3′-difluoro-4′-methoxy-[1,1′-biphenyl]-4-yl)methyl)-3,3-dimethylbutanamido)isoquinoline-6-carboxylate] | – | ≤ 1 µM
COC(=O)/C=C/c1cccc(N(Cc2ccc(-c3ccc(N(C)C)cc3)cc2)C(=O)C2CCCCC2)n1 [Compound 2, (E)-Methyl 3-(6-(N-((4′-(dimethylamino)-[1,1′-biphenyl]-4-yl)methyl)cyclohexanecarboxamido)pyridin-2-yl)acrylate] | ++ (‘++’ means Cmpd/Fex > 10 & < 100) | ≥ 10 µM
COC(=O)c1ccc2c(N(Cc3ccc(-c4ccc(C#N)c(C)c4)cc3)C(=O)CC(C)(C)C)nccc2c1 [Compound 42, Methyl 1-(N-((4′-cyano-3′-methyl-[1,1′-biphenyl]-4-yl)methyl)-3,3-dimethylbutanamido)isoquinoline-6-carboxylate] | – | ≤ 1 µM
COC(=O)c1ccc2c(N(Cc3ccc(-c4ccc(OC)c(Cl)c4)cc3)C(=O)[C@H]3CC[C@H](O)CC3)nccc2c1 [Compound 66, Methyl 1-(trans-N-((3′-chloro-4′-methoxy-[1,1′-biphenyl]-4-yl)methyl)-4-hydroxycyclohexanecarboxamido) isoquinoline-6-carboxylate] | – | ≤ 1 µM
COC(=O)c1ccc2c(N(Cc3ccc(-c4ccc(OC)c(C)c4)cc3)C(=O)C3CCCC3)nccc2c1 [Compound 71, Methyl 1-(N-((4′-methoxy-3′-methyl-[1,1′-biphenyl]-4-yl)methyl)cyclopentanecarboxamido) isoquinoline-6-carboxylate] | – | ≤ 1 µM
